2 compounds from patent publication US20170367338A1, “COMPOSITIONS AND METHODS FOR IMPROVING AGRONOMIC CHARACTERISTICS OF PLANTS” (MONSANTO TECHNOLOGY LLC, priority 2014, published 2017) can be followed below.

Series [1] relates to soybean cyst nematode (SCN). Kind of series: SCN greenhouse sand assay on soybean plants. The class given is in vivo. Particulars: Glycine max, 672 h, read-out: percent control (cyst number reduction) relative to the control blank treatment.
Another series relates to root knot nematode (RKN). Briefly: RKN greenhouse soil assay on cucumber plants. The following applies: for percent control (galling reduction) relative to the control blank treatment: 0 day treatment. The class given is in vivo. The text has this: Cucumber seeds are planted in a sandy soil mixture in two inch square plastic pots. When the cotyledons are fully opened and just as the first leaf begins to emerge, usually 7 days after planting, chemistry for the 7 day treatment is applied. One week later the chemistry for the 0 day treatment is applied. Separate plants are used for each application. The plants are generally in the 1-2 leaf stage now. At least four hours after the chemistry application the pots are inoculated with root knot nematode (RKN) eggs. Plants are rated for galling 14 days after the egg inoculation.
One milligram of chemistry per four pots is equal to one kilogram per hectare of chemical. A standard test uses four replications. For rates above 2 kg/ha, the desired amount of chemical is weighed into a 30 ml vial (example: 8 kg/ha rate =8 mg chemical in 30 ml vial). The chemical is dissolved in 2 ml of appropriate solvent, generally acetone. For rates below 2 kg/ha, 2 milligrams of chemistry is weighed into the vial and dissolved in 2 ml of the solvent. The appropriate amount of chemical concentrate is then pipetted into a separate 30 ml vial and solvent is added to bring the volume to 2 ml (example 0.5 kg/ha=0.5 ml of concentrate+1.5 ml solvent). Each dissolved concentrate is then brought to a total of 20 milliliters using 0.05% Triton X 100 surfactant solution.
Pots to be treated are moist but not saturated. To each of four pots, five milliliters of the appropriate chemical solution is pipetted to the media surface making sure to avoid contact with the base of the plant. Immediately following chemical application, using a mist nozzle, the pot surface is wetted sufficiently to saturate the pot watering in the chemistry. The chemical application is done in the morning.
Nematode eggs, either SCN or RKN, are added to distilled water to create a concentration of 1000 vermiform eggs […]. At least four hours after chemical treatment the eggs are applied to the treated pots plus non-treated check plants. A small hole about 1 cm deep is punched into the pot surface. One milliliter of the nematode egg slurry is pipetted into the hole. Immediately afterwards the hole is gently covered. Watering of the test plants is then restricted to only water as needed to prevent wilt for a period of 24 hours. After the 24 hour restricted watering, normal sub-irrigation watering is done for the duration of the test.

A further series concerns root knot nematode. Briefly: Pre-plant incorporated (PPI) greenhouse test of root knot nematode on cucumber plants. Particulars: for pest or weed control at 4000 g/ha: 4 kg/ha, read-out: percent control (galling reduction), 4 kg/ha rate; for pest or weed control at 8000 g/ha: 8 ka/ha, read-out: percent control (galling reduction), 8 ka/ha rate. The class given is in vivo. The essentials:
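Compound in acetone, diluted in 0.05% X100, was mixed into a field soil/sand mix at doses simulating 8, 4 and 2 kg/ha incorporated 15 cm deep, with 4 pots per treatment. Cucumber was seeded and root knot nematode eggs were applied 7, 14 or 21 days after soil treatment. Harvest followed 14 days after inoculation.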

Series [2] relates to Heterodera glycines (SCN). Kind of series: Seed treatment test of soybean cyst nematode on soybean. The class given is in vivo. The following applies: Heterodera glycines, 672 h, test a, read-out: percent cyst reduction relative to control blank treatment. Put shortly: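 Seeds (1 g cucumber for RKN, soybean for SCN) coated with compound in 500 ul acetone, air-dried, sown in sandy soil. Pots inoculated 3 days later with 1000 eggs per pot. Galling rated 14 days (RKN) or 28 days (SCN) after inoculation.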

In the next series the test system is caspase-3. Kind of series: Caspase-3 activity in H4IIE cells (DEVD-AMC). Format: cell-based. Particulars: rat hepatoma derived H4IIE cells, concentrations up to 300 μM. On the procedure: To evaluate whether the compound classes of this invention are able to induce apoptosis, caspase-3 activity was determined after compound exposure in rat hepatoma derived H4IIE cells using a caspase substrate (DEVD, Asp-Glu-Val-Asp) labeled with a fluorescent molecule, 7-Amino-4-methylcoumarin (AMC). Caspase 3 cleaves the tetrapeptide between D and AMC, thus releasing the fluorogenic […] AMC. Following the test article exposure to cells in 96-well plates, medium was aspirated from plates and PBS added to each well. Plates were stored at −80° C. to lyse cells and store samples until further analysis. On the day of analysis, plates were removed from freezer and thawed. Caspase buffer with fluorescent substrate was added to each well and incubated at room temperature for one hour. AMC release was measured in a spectrofluorometer at an excitation wavelength of 360 nm and an emission wavelength of 460 nm. Values are expressed as relative fluorescent units (RFU).

[3] abbreviates: 168 h, seven day pre-plant incorporated.
[4] abbreviates: 336 h, fourteen day pre-plant incorporated, test a.
Setting [5] is: 504 h, twenty one day pre-plant incorporated.
[6] abbreviates: fourteen day pre-plant incorporated, test a.

Where two headings read alike, the source gives them in different places. Marks after values point to notes of the source that are not given here.

In the case of `c1ccc(-c2noc(-c3cccs3)n2)cc1` [compound 1822], the pest or weed control at 2000 g/ha in series [1] (2 kg/ha, test a) amounted to 100%. The “percent control (galling reduction) relative to the control blank treatment” value in the series with root knot nematode (RKN) (0.05 kg/ha, test a) is recorded as 7^a percent; in the series with root knot nematode (RKN) (0.25 kg/ha, test a) it was 60%. In addition, in the series on root knot nematode (RKN) (Acetone formulation (10% acetone in 0.05% Triton X 100), 1 mg/kg), the “percent control (galling reduction), Acetone 1 mg/kg” value is 94%. Further, the pest or weed control at 4000 g/ha in the series with root knot nematode (setting [3]) came out at 99%; in the series on root knot nematode (setting [4]), 97%; with root knot nematode (setting [5]), 82%. Besides, the pest or weed control at 8000 g/ha worked out at 99% with root knot nematode (setting [3]), 95% with root knot nematode (setting [5]) and 100% with root knot nematode (setting [6]). For the same compound, in the series on root knot nematode (setting [6]), the “percent control (galling reduction), 2 kg/ha rate” value was 67^a percent. In series [2] (0.375 mg ai/gram seed), the pest or weed control at 0.375 mg/g turned out to be 58%. Also, the pest or weed control at 1.5 mg/g in series [2] (1.5 mg ai/gram seed) is 70%. Further, the “induction of caspase-3” value in the series with caspase-3 is given as “no induction of caspase-3”.

As to `Cc1cc(Cl)ccc1-c1noc(-c2ccco2)n1` [compound 5823], the pest or weed control at 100 g/ha in series [1] (0.1 kg/ha, test d) stood at 38%. Also, in series [1] (0.25 kg/ha, test d), the pest or weed control at 250 g/ha turned out to be 69%. The “percent control (galling reduction) relative to the control blank treatment” value with root knot nematode (RKN) (0.1 kg/ha, test a) is 85%; in the series with root knot nematode (RKN) (0.25 kg/ha, test c) it was 98%. Also, the pest or weed control at 4000 g/ha was 98% in the series on root knot nematode (setting [4]) and 94% in the series with root knot nematode (336 h, fourteen day pre-plant incorporated, test b). In addition, in the series on root knot nematode (setting [6]), the “percent control (galling reduction), 2 kg/ha rate” value is 85^a percent. Further, the pest or weed control at 8000 g/ha is 100% in the series on root knot nematode (setting [6]) and 100% with root knot nematode (fourteen day pre-plant incorporated, test b). For the same compound, the “induction of caspase-3” value in the series with caspase-3 is given as “no induction of caspase-3”.
